Where “and” joins values, the source holds several entries; their conditions need not be identical. Equal entries are not always repeated. Entries after “also recorded” stand apart in the source; their conditions may differ. Where two headings read alike, the source gives them in different places.

For assay [1], the target named is T1, endogenous ENaC in HAE cells (Homo sapiens, UniProt P37088+P51168+P51170).
T1 construct: endogenous in cells; host or cells: primary human airway (bronchial) epithelial cells from transplant or donor lungs
T1 sequence (P37088 1-178): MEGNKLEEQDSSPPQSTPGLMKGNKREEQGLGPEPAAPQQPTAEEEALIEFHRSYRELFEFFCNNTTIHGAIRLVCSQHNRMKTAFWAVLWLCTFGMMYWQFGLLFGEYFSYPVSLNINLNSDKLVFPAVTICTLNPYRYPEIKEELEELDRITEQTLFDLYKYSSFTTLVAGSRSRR
T1 sequence (P37088 205-669): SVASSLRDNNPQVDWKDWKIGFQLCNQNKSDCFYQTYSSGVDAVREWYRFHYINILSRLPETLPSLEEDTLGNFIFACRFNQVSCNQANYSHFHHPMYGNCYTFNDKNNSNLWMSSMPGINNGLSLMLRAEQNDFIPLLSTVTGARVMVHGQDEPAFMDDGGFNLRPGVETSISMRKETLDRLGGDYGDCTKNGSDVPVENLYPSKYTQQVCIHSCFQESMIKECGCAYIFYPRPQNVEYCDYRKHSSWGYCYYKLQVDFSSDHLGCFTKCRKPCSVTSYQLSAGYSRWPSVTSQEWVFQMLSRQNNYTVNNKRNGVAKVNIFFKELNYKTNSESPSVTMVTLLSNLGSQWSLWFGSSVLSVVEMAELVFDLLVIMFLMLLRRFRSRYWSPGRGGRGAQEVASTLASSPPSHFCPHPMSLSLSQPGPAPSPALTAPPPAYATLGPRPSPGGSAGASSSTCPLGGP
T1 sequence (P51168 whole entry): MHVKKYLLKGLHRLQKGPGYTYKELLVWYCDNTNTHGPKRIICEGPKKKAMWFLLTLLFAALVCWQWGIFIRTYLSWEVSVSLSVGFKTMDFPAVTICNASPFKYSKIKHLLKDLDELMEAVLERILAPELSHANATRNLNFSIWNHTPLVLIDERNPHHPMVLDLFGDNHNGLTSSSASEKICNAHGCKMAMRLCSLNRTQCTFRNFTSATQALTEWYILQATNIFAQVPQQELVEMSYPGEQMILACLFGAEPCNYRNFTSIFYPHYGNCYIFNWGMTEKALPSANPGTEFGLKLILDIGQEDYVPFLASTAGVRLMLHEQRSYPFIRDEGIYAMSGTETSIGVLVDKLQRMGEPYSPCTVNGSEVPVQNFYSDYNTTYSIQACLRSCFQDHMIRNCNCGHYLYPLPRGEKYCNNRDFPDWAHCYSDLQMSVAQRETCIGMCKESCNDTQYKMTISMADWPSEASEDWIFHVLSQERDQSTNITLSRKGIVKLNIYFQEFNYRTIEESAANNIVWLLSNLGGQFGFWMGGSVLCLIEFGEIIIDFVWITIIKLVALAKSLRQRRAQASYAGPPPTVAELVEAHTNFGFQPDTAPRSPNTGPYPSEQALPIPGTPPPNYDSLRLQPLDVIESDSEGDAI
T1 sequence (P51170 1-138): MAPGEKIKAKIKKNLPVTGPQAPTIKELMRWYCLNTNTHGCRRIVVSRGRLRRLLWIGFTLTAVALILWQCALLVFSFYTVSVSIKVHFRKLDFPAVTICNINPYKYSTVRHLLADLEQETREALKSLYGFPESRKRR
T1 sequence (P51170 182-649): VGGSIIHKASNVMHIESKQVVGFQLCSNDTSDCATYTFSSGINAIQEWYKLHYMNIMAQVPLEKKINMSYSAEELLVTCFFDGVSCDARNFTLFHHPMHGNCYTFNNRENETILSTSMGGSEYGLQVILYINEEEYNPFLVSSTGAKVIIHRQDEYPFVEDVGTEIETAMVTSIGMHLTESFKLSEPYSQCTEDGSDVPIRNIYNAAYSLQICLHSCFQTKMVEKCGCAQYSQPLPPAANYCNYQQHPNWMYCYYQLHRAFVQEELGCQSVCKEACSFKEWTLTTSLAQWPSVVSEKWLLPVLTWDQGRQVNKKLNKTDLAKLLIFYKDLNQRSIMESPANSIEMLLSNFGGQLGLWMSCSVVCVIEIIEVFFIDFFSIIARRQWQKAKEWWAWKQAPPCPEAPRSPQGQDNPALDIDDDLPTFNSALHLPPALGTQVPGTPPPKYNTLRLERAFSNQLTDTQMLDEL
As to conditions: human airway cells; stated jointly with mouse CCD; Carattino 2006; read-out: IC50, inhibition of ENaC activity; cited from earlier work.

Assay [2] deals with T2, endogenous ENaC in mpkCCDc14 cells (Mus musculus, UniProt Q61180+Q9WU38+Q9WU39).
T2 construct: endogenous ENaC in a mouse cortical collecting duct (mpkCCDc14) cell line; endogenous in cells; host or cells: mpkCCDc14 mouse cortical collecting duct cell line
T2 sequence (Q61180 1-205): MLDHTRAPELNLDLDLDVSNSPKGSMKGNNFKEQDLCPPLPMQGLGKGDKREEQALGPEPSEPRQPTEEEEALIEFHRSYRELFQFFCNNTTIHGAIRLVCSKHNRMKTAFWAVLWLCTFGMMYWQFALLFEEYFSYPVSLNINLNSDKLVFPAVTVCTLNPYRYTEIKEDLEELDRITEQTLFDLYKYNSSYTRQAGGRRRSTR
T2 sequence (Q61180 232-699): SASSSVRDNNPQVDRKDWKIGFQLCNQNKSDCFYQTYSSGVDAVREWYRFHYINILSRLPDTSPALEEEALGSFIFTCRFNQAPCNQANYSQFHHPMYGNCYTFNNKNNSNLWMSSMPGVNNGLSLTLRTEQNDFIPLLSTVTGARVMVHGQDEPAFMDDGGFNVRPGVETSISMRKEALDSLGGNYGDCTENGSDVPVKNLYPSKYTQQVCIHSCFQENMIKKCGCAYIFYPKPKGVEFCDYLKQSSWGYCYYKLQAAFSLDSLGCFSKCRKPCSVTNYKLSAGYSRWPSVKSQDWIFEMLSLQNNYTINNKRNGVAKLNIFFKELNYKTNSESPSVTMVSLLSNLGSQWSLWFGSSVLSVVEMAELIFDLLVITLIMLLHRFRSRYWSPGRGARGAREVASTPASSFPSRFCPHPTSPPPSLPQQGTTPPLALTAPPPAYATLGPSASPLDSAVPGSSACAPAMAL
T2 sequence (Q9WU38 whole entry): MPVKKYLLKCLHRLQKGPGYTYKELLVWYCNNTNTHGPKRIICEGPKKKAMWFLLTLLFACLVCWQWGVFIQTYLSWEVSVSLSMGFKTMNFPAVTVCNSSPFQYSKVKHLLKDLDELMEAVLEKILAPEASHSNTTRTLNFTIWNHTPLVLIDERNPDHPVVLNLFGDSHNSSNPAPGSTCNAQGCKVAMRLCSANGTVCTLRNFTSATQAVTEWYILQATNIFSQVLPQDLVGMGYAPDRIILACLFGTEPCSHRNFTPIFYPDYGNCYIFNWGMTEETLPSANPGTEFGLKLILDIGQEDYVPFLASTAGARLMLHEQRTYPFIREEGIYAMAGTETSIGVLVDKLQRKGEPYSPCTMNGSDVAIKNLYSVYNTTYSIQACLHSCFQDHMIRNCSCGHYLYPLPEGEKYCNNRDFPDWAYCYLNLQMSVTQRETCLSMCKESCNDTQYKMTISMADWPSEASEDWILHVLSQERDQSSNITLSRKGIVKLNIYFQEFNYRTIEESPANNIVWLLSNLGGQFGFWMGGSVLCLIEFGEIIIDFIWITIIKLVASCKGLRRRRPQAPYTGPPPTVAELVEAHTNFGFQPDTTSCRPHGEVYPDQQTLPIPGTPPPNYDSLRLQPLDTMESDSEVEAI
T2 sequence (Q9WU39 1-143): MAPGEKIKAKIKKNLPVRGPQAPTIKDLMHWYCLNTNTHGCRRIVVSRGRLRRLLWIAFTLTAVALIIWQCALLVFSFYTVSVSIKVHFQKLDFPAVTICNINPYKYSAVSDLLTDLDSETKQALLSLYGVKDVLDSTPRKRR
T2 sequence (Q9WU39 187-655): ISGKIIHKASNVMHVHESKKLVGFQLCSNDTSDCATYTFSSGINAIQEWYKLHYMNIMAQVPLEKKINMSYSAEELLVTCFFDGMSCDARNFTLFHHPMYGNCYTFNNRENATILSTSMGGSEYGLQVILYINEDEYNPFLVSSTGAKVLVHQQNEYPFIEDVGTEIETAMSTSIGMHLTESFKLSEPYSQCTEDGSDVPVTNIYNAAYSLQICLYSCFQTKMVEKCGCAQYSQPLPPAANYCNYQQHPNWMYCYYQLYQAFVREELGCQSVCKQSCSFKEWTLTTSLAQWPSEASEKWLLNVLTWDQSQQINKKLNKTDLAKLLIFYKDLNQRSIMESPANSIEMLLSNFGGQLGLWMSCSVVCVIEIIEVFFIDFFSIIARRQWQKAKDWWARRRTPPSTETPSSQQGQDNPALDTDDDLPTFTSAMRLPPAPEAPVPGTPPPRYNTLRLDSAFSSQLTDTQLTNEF
The assay is described as follows: Amiloride-sensitive short circuit current in mpkCCDc14 monolayers, Ussing chamber. Conditions: for Ki: mpkCCDc14 cells; for inhibition of amiloride sensitive short circuit currents: mpkCCDc14, increasing concentrations of peptide; for inhibition of transepithelial Na+ transport: peptide 3 μM in apical chamber; for reversibility of inhibition on washout: peptide 3 μM. The class given is cell-based. Here is the method: mpkCCDc14 Cell Culture—mpkCCDc14 cells were grown as previously reported (Bens, M., Vallet, V., Cluzeaud, F., Pascual-Letallec, L., Kahn, A., Rafestin-Oblin, M. E., Rossier, B. C., and Vandewalle, A. (1999), Corticosteroid-dependent sodium transport in a novel immortalized mouse collecting duct principal cell line, J. Am. Soc. Nephrol. 10, 923-934). mpkCCDc14 cells were subcultured onto permeable filter supports coated with collagen (0.4-μm pore size, 1-cm^2 surface area, Snapwell filters; Coming Inc., Acton, Mass.). Cells were kept on filters for at least 4 days in defined medium (Bens, M., Vallet, V., Cluzeaud, F., Pascual-Letallec, L., Kahn, A., Rafestin-Oblin, M. E., Rossier, B. C., and Vandewalle, A. (1999) J. Am. Soc. Nephrol. 10, 923-934 30) that was changed every second day. At least 24 h prior to the experiments, the culture medium was replaced with a minimal medium (without drugs or hormones) that contained only Dulbecco's modified Eagle's medium and Ham's F-12.
Short Circuit Current Measurements—Cell culture inserts were mounted in modified Ussing chambers (Harvard Apparatus, Holliston, Mass.), and the monolayers were continuously short-circuited with a voltage/current clamp system (Physiologic Instruments, San Diego, Calif.). A 2-mV bipolar pulse was applied periodically to measure the resistance of the monolayer. As previously described by Bridges et al. (Bridges, R. J., Newton, B. B., Pilewski, J. M., Devor, D. C., Poll, C. T., and Hall, R. L. (2001), Na+ transport in normal and CF human bronchial epithelial cells is inhibited by BAY 39-9437, Am. J. Physiol. 281, L16-L23 32, Na^+ transport in normal and CF human bronchial epithelial cells is inhibited by BAY 39-9437), the bath solution contained (in mM) 120 NaCl, 25 NaHCO3, 3.3 KH2PO4, 0.8 K2HPO4, 1.2 MgCl2, 1.2 CaCl2, and 10 glucose. The pH of this solution was 7.4 when gassed with a mixture of 95% O2-5% CO2 at 37° C.
(FIG. 6A) mpkCCDc14cells cultured on permeable membrane supports and mounted in a modified Ussing chamber were continuously short-circuited by a voltage clamp amplifier (Physiologic Instruments, San Diego, Calif.). Transepithelial resistance was monitored by applying a 4 mV bipolar pulse every 60 seconds. Where indicated, a 43 residue peptide corresponding to E144-K186 of mouse γ-ENaC (γ-peptide) was added to the apical chamber at a final concentration of 3 μM. […] Data presented as mean +/−standard error (n=8).
Vectors and Cell Culture—Wild-type, C-terminal and double epitope tagged mouse ENaC subunit cDNAs were previously described (Hughey, R. P., Mueller, G. M., Bruns, J. B., Kinlough, C. L., Poland, P. A., Harkleroad, K. L., Carattino, M. D., and Kleyman, T. R. (2003) J Biol Chem 278, 37073-37082 and Ahn, Y. J., Brooker, D. R., Kosari, F., Harte, B. J., Li, J., Mackler, S. A., and Kleyman, T. R. (1999), Cloning and functional expression of the mouse epithelial sodium channel, Am J Physiol 277, F121-129). The γ subunit mutations were generated in pcDNA3.1 (+) using a standard two-step PCR method. A cDNA clone (IMAGE #: 3600399) encoding full length mouse prostasin was obtained from Open Biosystems (Huntsville, Ala.) and sub-cloned into pcDNA3.1 (+) (Invitrogen, Carlsbad, Calif.). MDCK type 1 cells were a gift from Barry M. Gumbiner (Memorial Sloan-Kettering Cancer Center, New York) and were cultured as previously described (Lavelle, J. P., Negrete, H. O., Poland, P. A., Kinlough, C. L., Meyers, S. D., Hughey, R. P., and Zeidel, M. L. (1997), Low permeabilities of MDCK cell monolayers: a model barrier epithelium, Am J Physiol 273, F67-75). CCD (mpkCCDc14) cells were a gift from Alain Vandewalle (Institut National de la Santéet de la Recherche Médicale, Paris, France) and were cultured as previously described (Bens, M., Vallet, V., Cluzeaud, F., Pascual-Letallec, L., Kahn, A., Rafestin-Oblin, M. E., Rossier, B. C., and Vandewalle, A. (1999) J Am Soc Nephrol 10, 923-934).

One may read the IC50 as the concentration needed to halve the response being measured. “Ac-DLRGALPHPLQRLRTPPPPNPARSAR-NH2 [α-26]”: the 50% inhibitory concentration (IC50) in assay [1] was 50 to 100 µM. The Ki in assay [2] (stated jointly for HBE or mpkCCDc14, read-out: Ki, block of endogenous ENaC activity) is 50 to 100 µM.

For the substance “Ac-EAGSMRSTWEGTPPRFLNLIPLLVFNENEKGKARDFFTGRKRK-NH2 [γ-43]”, the “increase of the IC50 for amiloride block” value in assay [2] (CCD cells, 3 μM γ-43) came to 60%. The half-maximal inhibitory concentration (IC50) in assay [2] (mouse CCD (mpkCCDc14), nonlinear curve fitting, read-out: IC50, inhibition of short circuit currents) is 2 to 3 µM and 3.2 µM. In addition, the “inhibition of amiloride sensitive short circuit currents” value in assay [2] (listed as γ cleavage product) is “inhibited in a dose dependent manner”. Besides, in assay [2] (listed as γ-peptide), the “inhibition of amiloride sensitive short circuit currents” value was “inhibited in a dose dependant manner”, the “inhibition of transepithelial Na+ transport” value is reported as “marked inhibition” and the “reversibility of inhibition on washout” value is on record as “reversibly inhibits; also recorded: relieved by wash out”. Moreover, the Ki in assay [2] (stated jointly for HBE and mpkCCDc14, read-out: apparent Ki, inhibition of endogenous ENaC activity) is ~2 µM. In assay [2], the “inhibition of transepithelial Na+ transport” value is reported as “rapidly inhibited; also recorded: marked inhibition” and the “reversibility of inhibition on washout” value is on record as “reversible; also recorded: relieved by washout”.

Values taken from patent US20070149456A1, “Epithelial sodium channel inhibiting agents and uses therefor” (University of Pittsburgh, priority 2005, published 2007).
